Measured values taken from patent US20240190821A1, “SULFONAMIDE SUBSTITUTED N-(1H-INDOL-7-YL)BENZENESULFONAMIDES AND USES THEREOF” (Triana Biomedicines, Inc., priority 2021, published 2024).

Assays:
DCAF15 = DCAF15 (Homo sapiens, UniProt Q66K64); assay: Binary interaction between compounds and DCAF15, HTRF competition assay; type: binding; settings: HTRF competition with Alexa Fluor 647 tracer, His-tagged DCAF15 complex; read-out: DCAF15 IC50
Procedure: DCAF15 interactions with test compounds were monitored using HTRF competition assays (Cisbio, Bedford, MA). […] These two solutions were mixed and incubated for 15 min at room temperature. 9.8 ul of the tracer solution and 10 ul of the DCAF15/mAb Anti-6His-Eu cryptate Gold mixture were added sequentially to each well in the assay plate. Reaction mixtures with no DCAF15 added were included as […] controls. […] Binding was estimated based on ratiometric analysis and titration curves were generated in GraphPad Prism (7.00, GraphPad, La Jolla, CA).

[1] = target: T1, DCAF15-RBM39 ternary complex (Homo sapiens, UniProt Q14498+Q66K64); assay: Compound-induced DCAF15-RBM39 ternary complex formation, AlphaLISA; type: biochemical; settings: AlphaLISA, His-tagged DCAF15 complex and biotin-carrying RBM39; read-out: Ternary-RBM39 (RRM2) EC50
T1 construct: (RRM2)
T1 sequence (Q66K64 whole entry): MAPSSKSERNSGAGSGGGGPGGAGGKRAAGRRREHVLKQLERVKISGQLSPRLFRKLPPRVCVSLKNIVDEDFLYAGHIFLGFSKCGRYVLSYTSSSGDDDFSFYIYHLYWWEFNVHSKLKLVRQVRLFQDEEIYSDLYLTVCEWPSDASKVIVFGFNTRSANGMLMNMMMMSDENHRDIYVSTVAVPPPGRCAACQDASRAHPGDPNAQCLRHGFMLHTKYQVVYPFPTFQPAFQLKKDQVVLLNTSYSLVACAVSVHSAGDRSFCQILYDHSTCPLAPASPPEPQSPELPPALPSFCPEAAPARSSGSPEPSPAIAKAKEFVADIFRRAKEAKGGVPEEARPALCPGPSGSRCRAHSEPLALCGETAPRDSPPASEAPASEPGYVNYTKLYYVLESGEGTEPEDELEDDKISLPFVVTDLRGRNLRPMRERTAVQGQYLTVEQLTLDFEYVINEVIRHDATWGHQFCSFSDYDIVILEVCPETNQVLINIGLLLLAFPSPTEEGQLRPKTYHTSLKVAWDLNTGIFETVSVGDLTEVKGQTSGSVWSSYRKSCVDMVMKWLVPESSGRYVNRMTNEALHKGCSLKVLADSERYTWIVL
T1 sequence (Q14498 250-328 limits assumed): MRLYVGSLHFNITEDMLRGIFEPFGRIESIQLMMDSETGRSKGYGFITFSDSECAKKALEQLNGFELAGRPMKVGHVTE
T1 sequence (Q16531 whole entry partner): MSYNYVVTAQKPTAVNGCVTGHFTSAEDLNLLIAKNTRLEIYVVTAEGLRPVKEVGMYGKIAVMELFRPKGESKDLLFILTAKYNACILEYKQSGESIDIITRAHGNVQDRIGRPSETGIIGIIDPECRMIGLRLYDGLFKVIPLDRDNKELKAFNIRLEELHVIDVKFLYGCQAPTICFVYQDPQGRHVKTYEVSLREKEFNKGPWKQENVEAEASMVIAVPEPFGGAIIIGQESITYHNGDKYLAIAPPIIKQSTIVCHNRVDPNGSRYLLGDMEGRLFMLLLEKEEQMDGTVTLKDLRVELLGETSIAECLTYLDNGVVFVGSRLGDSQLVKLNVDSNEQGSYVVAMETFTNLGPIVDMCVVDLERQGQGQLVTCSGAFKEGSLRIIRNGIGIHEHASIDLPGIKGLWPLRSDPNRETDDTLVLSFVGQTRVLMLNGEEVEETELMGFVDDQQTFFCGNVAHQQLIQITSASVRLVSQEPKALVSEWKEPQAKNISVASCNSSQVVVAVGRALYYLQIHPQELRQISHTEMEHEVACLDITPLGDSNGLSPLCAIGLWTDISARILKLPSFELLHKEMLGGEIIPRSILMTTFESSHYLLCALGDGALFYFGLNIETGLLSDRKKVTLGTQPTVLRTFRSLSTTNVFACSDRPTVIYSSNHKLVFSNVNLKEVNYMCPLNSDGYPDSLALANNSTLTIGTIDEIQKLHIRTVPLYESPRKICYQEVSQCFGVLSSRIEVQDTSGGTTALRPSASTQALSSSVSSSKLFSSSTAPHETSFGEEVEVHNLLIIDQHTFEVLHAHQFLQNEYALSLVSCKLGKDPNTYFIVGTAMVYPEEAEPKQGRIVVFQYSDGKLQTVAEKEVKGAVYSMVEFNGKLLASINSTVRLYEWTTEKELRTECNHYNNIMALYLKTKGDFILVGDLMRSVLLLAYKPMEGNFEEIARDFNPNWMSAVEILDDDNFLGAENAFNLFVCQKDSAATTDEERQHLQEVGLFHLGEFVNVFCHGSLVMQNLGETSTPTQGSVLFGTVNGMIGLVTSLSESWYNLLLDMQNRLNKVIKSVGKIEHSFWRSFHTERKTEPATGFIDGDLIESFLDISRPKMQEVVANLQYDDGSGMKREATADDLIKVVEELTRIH
Procedure: Compound-induced DCAF15-RBM39 ternary complex formation was monitored using AlphaLISA® assays (Perkin Elmer, Waltham, MA). […] 9.8 ul of this protein mixture was then mixed with the compounds in the assay plate and incubated for one hour at room temperature. Reaction mixtures with no compounds added were included as negative controls, while a His-tagged and biotinylated GST protein was included to track general assay performance. […] The beads were then added to the assay plate sequentially with incubation at room temperature for 1-2 hours after each addition.

Chain of DCAF15 (Q66K64 whole entry): as the sequence (Q66K64 whole entry) above
Chain of DCAF15 (Q16531 whole entry partner): as the sequence (Q16531 whole entry partner) above

Structure (SMILES) | IC50 (DCAF15) [µM] | EC50 [1] [µM]
CCCN(c1ccc(S(=O)(=O)Nc2ccc(Cl)c3c(Cl)c[nH]c23)cc1)S(=O)(=O)N1CCN(C)CC1 [Compound 66, N-(4-(N-(3,4-dichloro-1H-indol-7-yl)sulfamoyl)phenyl)-4-methyl-N-propylpiperazine-1-sulfonamide] | < 5 | < 1
Cc1ccc(NS(=O)(=O)c2ccc(S(=O)(=O)N3CCC(N)CC3)cc2)c2[nH]cc(C#N)c12 [Compound 81, 4-((4-aminopiperidin-1-yl)sulfonyl)-N-(3-cyano-4-methyl-1H-indol-7-yl) benzenesulfonamide] | < 5 | < 1
CC(C)C(=O)Nc1cccc(CNS(=O)(=O)c2ccc(S(=O)(=O)Nc3ccc(Cl)c4c(Cl)c[nH]c34)cc2)c1 [Compound 13, N-(3-(((4-(N-(3,4-dichloro-1H-indol-7-yl)sulfamoyl)phenyl)sulfonamido)methyl)phenyl) isobutyramide] | < 20 | < 20
N#Cc1cc(S(=O)(=O)Nc2ccc(Cl)c3c(Cl)c[nH]c23)ccc1S(=O)(=O)N1CCNCC1 [Compound 43, 3-cyano-N-(3,4-dichloro-1H-indol-7-yl)-4-(piperazin-1-ylsulfonyl)benzenesulfonamide] | < 5 | < 1
Cc1ccc(NS(=O)(=O)c2ccc(S(=O)(=O)N3CCN(C4COC4)CC3)cc2)c2[nH]cc(C#N)c12 [Compound 86, N-(3-cyano-4-methyl-1H-indol-7-yl)-4-((4-(oxetan-3-yl)piperazin-1-yl)sulfonyl)benzenesulfonamide] | < 20 | < 1
O=S(=O)(Nc1ccc(Cl)c2c(Cl)c[nH]c12)c1ccc(S(=O)(=O)N2CCC(n3ccnn3)C2)cc1 (stereo not drawn) [Compound 36, 4-((3-(1H-1,2,3-triazol-1-yl)pyrrolidin-1-yl)sulfonyl)-N-(3,4-dichloro-1H-indol-7-yl)benzenesulfonamide] | < 5 | < 5
CCN=S(=O)(c1ccc(S(=O)(=O)Nc2ccc(Cl)c3c(Cl)c[nH]c23)cc1)C1CCNCC1 (stereo not drawn) [Compound 68, N-(3,4-dichloro-1H-indol-7-yl)-4-(N-ethylpiperidine-4-sulfonimidoyl)benzenesulfonamide] | < 5 | < 1
Cc1ccnc(CNS(=O)(=O)c2ccc(S(=O)(=O)Nc3ccc(Cl)c4c(Cl)c[nH]c34)cc2)c1 [Compound 16, N^1-(3,4-dichloro-1H-indol-7-yl)-N^4-((4-methylpyridin-2-yl)methyl)benzene-1,4-disulfonamide] | < 5 | < 20
O=S(=O)(Nc1ccc(Cl)c2c(Cl)c[nH]c12)c1ccc(C2(N3CCNCC3)COC2)cc1 [Compound 60, N-(3,4-dichloro-1H-indol-7-yl)-4-(3-(piperazin-1-yl)oxetan-3-yl)benzenesulfonamide] | < 5 | < 1
CCC(NS(=O)(=O)c1ccc(S(=O)(=O)Nc2ccc(Cl)c3c(Cl)c[nH]c23)cc1)c1ccc2c(c1)OCCO2 (stereo not drawn) [Compound 14, N1-(3,4-dichloro-1H-indol-7-yl)-N^4-(1-(2,3-dihydrobenzo[b][1, 4]dioxin-6-yl)propyl)benzene-1,4-disulfonamide] | < 20 | < 20
Cc1ccc(CCNS(=O)(=O)c2ccc(S(=O)(=O)Nc3ccc(Cl)c4c(Cl)c[nH]c34)cc2)o1 [Compound 25, N^1-(3,4-dichloro-1H-indol-7-yl)-N4_ (2-(5-methylfuran-2-yl)ethyl)benzene-1,4-disulfonamide] | < 20 | < 20
CCCN(C(C)=O)c1ccc(S(=O)(=O)Nc2ccc(Cl)c3c(Cl)c[nH]c23)cc1 [Compound 71, N-(4-(N-(3,4-dichloro-1H-indol-7-yl)sulfamoyl)phenyl)-N-propylacetamide] | < 5 | < 1
Cc1ccc(NS(=O)(=O)c2ccc(S(=O)(=O)N3CCC(N(C)C)C3)cc2)c2[nH]cc(C#N)c12 (stereo not drawn) [Compound 80, N-(3-cyano-4-methyl-1H-indol-7-yl)-4-((3-(dimethylamino)pyrrolidine-1-yl)sulfonyl)benzenesulfonamide] | < 20 | < 1
Cc1cnc(CNS(=O)(=O)c2ccc(S(=O)(=O)Nc3ccc(Cl)c4c(Cl)c[nH]c34)cc2)cn1 [Compound 19, N^1-(3,4-dichloro-1H-indol-7-yl)-N4_ ((5-methylpyrazin-2-yl)methyl)benzene-1,4-disulfonamide] | < 5 | < 1
CC1CN(S(=O)(=O)c2ccc(S(=O)(=O)Nc3ccc(Cl)c4c(Cl)c[nH]c34)cc2)CCN1 (stereo not drawn) [compound 109] | < 5 | < 1

More lines, now with the values ahead:

IC50 (DCAF15) [µM] | EC50 [1] [µM] | Structure (SMILES)
< 5 | < 1 | O=S(=O)(Nc1ccc(Cl)c2c(Cl)c[nH]c12)c1ccc(S(=O)(=O)C2CCNCC2)cc1 [Compound 57, N-(3,4-dichloro-1H-indol-7-yl)-4-(piperidin-4-ylsulfonyl)benzene sulfonamide]
< 5 | < 1 | CN1CCC(S(=O)(=O)c2ccc(S(=O)(=O)Nc3ccc(Cl)c4c(Cl)c[nH]c34)cc2)CC1 [Compound 58, N-(3,4-dichloro-1H-indol-7-yl)-4-((1-methylpiperidin-4-yl)sulfonyl)benzene sulfonamide]
< 20 | < 5 | CC(C)(C)OC(=O)N1CCC2(CC1)CN(S(=O)(=O)c1ccc(S(=O)(=O)Nc3ccc(Cl)c4c(Cl)c[nH]c34)cc1)CCO2 [Compound 55, tert-butyl 4-((4-(N-(3,4-dichloro-1H-indol-7-yl)sulfamoyl)phenyl)sulfonyl)-1-oxa-4,9-diazaspiro[5.5] undecane-9-carboxylate]
< 5 | < 1 | CCCN(c1ccc(S(=O)(=O)Nc2ccc(Cl)c3c(Cl)c[nH]c23)cc1)S(=O)(=O)C1CCNCC1 [Compound 63, N-(4-(N-(3,4-dichloro-1H-indol-7-yl)sulfamoyl)phenyl)-N-propylpiperidine-4-sulfonamide]
< 100 | < 5 | N#Cc1cccc(S(=O)(=O)Nc2ccc(I)c3c(Cl)c[nH]c23)c1 [Compound 102, N-(3-chloro-4-iodo-1H-indol-7-yl)-3-cyanobenzenesulfonamide]
< 5 | < 1 | CCCN(c1ccc(S(=O)(=O)Nc2ccc(Cl)c3c(Cl)c[nH]c23)cc1)S(=O)(=O)N1CCNCC1 [Compound 67, N-(4-(N-(3,4-dichloro-1H-indol-7-yl)sulfamoyl)phenyl)-N-propylpiperazine-1-sulfonamide]
< 20 | < 1 | N#Cc1ccc(NS(=O)(=O)c2ccc(S(=O)(=O)N3CCNCC3)cc2)c2[nH]cc(Cl)c12 [Compound 88, N-(3-chloro-4-cyano-1H-indol-7-yl)-4-(piperazin-1-ylsulfonyl)benzenesulfonamide]
< 100 | < 1 | CCN=S(=O)(c1ccc(S(=O)(=O)Nc2ccc(Cl)c3c(Cl)c[nH]c23)cc1)N1CCNCC1 (stereo not drawn) [Compound 69, N-(3,4-dichloro-1H-indol-7-yl)-4-(N-ethylpiperazine-1-sulfonimidoyl)benzenesulfonamide]
< 5 | < 5 | Cn1cc(-c2ccc(S(=O)(=O)Nc3ccc(Cl)c4c(Cl)c[nH]c34)cc2)cn1 [Compound 61, N-(3,4-dichloro-1H-indol-7-yl)-4-(1-methyl-1H-pyrazol-4-yl)benzenesulfonamide]
